Consider four compounds from US20230277483A1, “COMPOSITIONS AND METHODS TO TREAT INFLAMMATION” (University of Iowa Research Foundation, priority 2022, published 2023).

The test system of test [1] is human monocyte-derived macrophages (MDM) using THP-1 cells. The test is described as follows: Proinflammatory cytokines after Pg-LPS challenge (qRT-PCR, ELISA). The format is cell-based. Conditions: at 0.1 μg after Pg-LPS challenge. How it is done:
(§1) Sg metabolites modulate proinflammatory cytokines in human periodontal associated cells in vitro. Sg were cultured in a total of 40 ml DMEM for 24 hrs. After 200 μl of Sg suspension reached 0.2 at OD600 value in a 96-well plate, the Sg metabolites were collected by centrifugation at 3000 g for 10 min and then filtered through a 0.22 μm filter. No toxicity of Sg metabolites was detected using an MTT assay on primary human bone marrow mesenchymal stromal cells (BMSCs) and primary human gingival fibroblasts (HGF) (data no shown). The modulation of Sg metabolites on inflammatory cytokines was tested using human monocyte-derived macrophages (MDM) and HGF. The MDM were generated by inducing a human macrophage cell line (THP-1) using PMA at 10 ng/ml. The MDM at 2×10^6 cells/per well and HGF at 2×10^4 cells/per well were cultured in 24-well plates using DMEM with 10% FBS and 1% PS. The Sg metabolites at 1 and 5% v/v were added and incubated for 24 hrs before challenging with Pg-LPS at 100 ng/ml.
(§2) Human monocyte-derived macrophages (MDM) using THP-1 cells and HGF were cultured in a 24-well plate with DMEM and challenged with Pg-LPS at 100 ng/ml.
(§3) In addition, freshly isolated epidydimal white adipose tissues (eWAT) from mice on a HFD for 16 weeks were minced and cultured in 24-well plates and treated with HCA at 0.5 and 1.0 μM in DMEM/F-12 containing 10% cosmic calf serum (CCS) and 1% penicillin-streptomycin (basal growth media, BGM). […] These preliminary data are strong evidence that Sg metabolites have the potential to modulate host inflammatory responses and attenuate inflammation.
HCA promotes proliferation of health related bacteria and inhibits proliferation and attachment of periodontopathogenic bacteria. Promoting the growth of health-related commensal bacteria while inhibiting proliferation and attachment of pathogenic bacteria may be effective at preventing or treating periodontal inflammation. To determine if HCA has an effect on the growth properties of commensal bacteria and periodontopathogens, HCA at different concentrations was added to aerobic culture of S. mitis and S. oralis and anaerobic culture of T. denticola as described in our published manuscript (see detail in Shu et al, Journal of Periodontology, 2022). FIGS. 18A-C summarize the functions of HCA on the proliferation of specific commensal and pathogenic bacteria. […] Furthermore, the function of HCA on P. gingivalis attachment, a key parameter of adhesion and biofilm formation by periodontopathogenic bacteria, was investigated. […] Attachment measurements of P. gingivalis were performed based on our published studies (see detail in Shu et al, Journal of Periodontology, 2022). […] To test the biocompatibility and anti-inflammatory properties of HCA, human monocyte-derived macrophages (MDM) and gingival fibroblasts (HGF) were prepared as described in our previous studies. The cells were then treated with HCA from 0.1 to 50 μM. No toxicity was observed after treatment with different concentrations of HCA in either cell type using an MTT assay (FIGS. 19A and B, left column). The anti-inflammatory function of HCA on MDM and HGF after exposure to P. gingivalis lipopolysaccharide (PG-LPS) was investigated. […] HCA mitigates inflammation and affects the composition of microbiomes in vivo. Recent studies investigated whether HCA modulates periodontal inflammation using a mouse model. To induce periodontal inflammation, a total of 1 μl Pg-LPS at 10 μg/μl was directly injected twice a week into the interdental region between maxillary molars of C57BL/6J mice using a Hamilton1700 series syringe according to our previously published studies. 100 μl of HCA at 0.5 μM was administrated I.P. three time a week. […] It was also tested whether HCA affects the composition of the microbiome in vivo. For this purpose, high fat diet-induced obese (DIO) mice (The Jackson Laboratory) received I.P, administration of 100 μl of HCA at 0.2 and 0.5 μM three times a week for 3 weeks. […]
(In general: Real-time PCR tracks product formation cycle by cycle.)

Test [2] concerns human gingival fibroblasts (HGF). Put plainly: Proinflammatory cytokines after Pg-LPS challenge (qRT-PCR, ELISA, antibody array). In kind it is cell-based. Conditions: for proinflammatory cytokines (transcripts of IL-1β, 6 and 8): at 0.1 μg after Pg-LPS challenge. The method, then:
as §1
(§4) L-Norleucine as well as other metabolites modulate proinflammatory cytokines in macrophages and HGF. L-Norleucine was obtained commercially (Sigma) and dissolved in DMEM. Mouse macrophages and human HGF were cultured with DMEM supplemented with different concentrations of L-Norleucine and subsequently challenged with Pg-LPS at 100 ng/ml.
as §2, §3
HCA promotes proliferation of health related bacteria and inhibits proliferation and attachment of periodontopathogenic bacteria. Promoting the growth of health-related commensal bacteria while inhibiting proliferation and attachment of pathogenic bacteria may be effective at preventing or treating periodontal inflammation. To determine if HCA has an effect on the growth properties of commensal bacteria and periodontopathogens, HCA at different concentrations was added to aerobic culture of S. mitis and S. oralis and anaerobic culture of T. denticola as described in our published manuscript (see detail in Shu et al, Journal of Periodontology, 2022). FIGS. 18A-C summarize the functions of HCA on the proliferation of specific commensal and pathogenic bacteria. […] Furthermore, the function of HCA on P. gingivalis attachment, a key parameter of adhesion and biofilm formation by periodontopathogenic bacteria, was investigated. […] Attachment measurements of P. gingivalis were performed based on our published studies (see detail in Shu et al, Journal of Periodontology, 2022). […] To test the biocompatibility and anti-inflammatory properties of HCA, human monocyte-derived macrophages (MDM) and gingival fibroblasts (HGF) were prepared as described in our previous studies. The cells were then treated with HCA from 0.1 to 50 μM. No toxicity was observed after treatment with different concentrations of HCA in either cell type using an MTT assay (FIGS. 19A and B, left column). The anti-inflammatory function of HCA on MDM and HGF after exposure to P. gingivalis lipopolysaccharide (PG-LPS) was investigated. […] HCA mitigates inflammation and affects the composition of microbiomes in vivo. Recent studies investigated whether HCA modulates periodontal inflammation using a mouse model. To induce periodontal inflammation, a total of 1 μl Pg-LPS at 10 μg/μl was directly injected twice a week into the interdental region between maxillary molars of C57BL/6J mice using a Hamilton1700 series syringe according to our previously published studies. […]

In the next test the test system is Human MDM. Put plainly: Anti-inflammatory miR expression after Pg-LPS challenge. The format is cell-based. Conditions: 24 hours after Pg-LPS challenge. How it is done:
(§5) FIGS. 11A-11B. Sg metabolites upregulate anti-inflammatory miRs in human macrophages and HGF. A-B: Relative transcript changes of miR-200c, 146a, and 21 in HGF (A) and human MDM (B) treated with AICAR, MA, HCA, and HPLA 24 hours after Pg-LPS challenge; performed in duplicate.
Human MDM was cultured in a 24-well plate and treated with HCA at different concentrations and Pg-LPS at 100 ng/mi for 24 hrs. […] (All data are presented as means±SEM. *: p<0.05 vs untreated, ANOVA).

The test system of a further test is HGF. The test is described as above. In kind it is cell-based, human. The note with it: 24 hours after Pg-LPS challenge. The method, then:
as §5

The next test deals with Mouse macrophages. Put plainly: Proinflammatory cytokine transcripts after Pg-LPS challenge. In kind it is cell-based. How it is done: as §4
The mark [3] stands for this setting: L-Norleucine at 1 and 5 μM, Pg-LPS at 100 ng/ml.

The structures appear in SMILES notation.

On to `NC(=O)c1ncn([C@@H]2O[C@H](CO)[C@@H](O)[C@H]2O)c1N` [AICAR, acadesine], for which the “proinflammatory cytokines (IL-6 transcript and IL-6 protein in supernatants)” value in test [1] is recorded as “modulate”. For the same compound, in test [2], the “proinflammatory cytokines (transcripts of IL-1β, 6 and 8)” value was “modulate”. The “anti-inflammatory miRs (miR-200c, 146a, and 21)” value (shortened to “anti-inflammatory miRs”) with Human MDM and with HGF was “upregulate” throughout.

On to `O=C(O)C(O)Cc1ccc(O)cc1` (stereo not drawn) [HPLA, 4-hydroxyphenyllactic acid], for which, in test [1], the “proinflammatory cytokines (IL-6 transcript and IL-6 protein in supernatants)” value was “modulate”. Moreover, the “proinflammatory cytokines (transcripts of IL-1β, 6 and 8)” value in test [2] is “modulate”. For the same compound, the “anti-inflammatory miRs” value in the test on Human MDM and with HGF was “upregulate” each time.

Consider `CCCC[C@H](N)C(=O)O` [L-Norleucine], for which the “transcripts of IL-1β, 6, and 8” value (in test [2] (setting [3]); in the test on Mouse macrophages (setting [3])) was “effectively downregulated” in each case. Besides, in the test with Mouse macrophages (L-Norleucine), the “IL-6 and IL-8 in macrophages” value is listed as “effectively downregulated”.

Regarding `O=C(O)CC(O)C(=O)O` (stereo not drawn) [MA, malic acid], the “proinflammatory cytokines (IL-6 transcript and IL-6 protein in supernatants)” value in test [1] is on record as “modulate”. Further, the “proinflammatory cytokines (transcripts of IL-1β, 6 and 8)” value in test [2] is reported as “modulate”. In addition, the “anti-inflammatory miRs” value in the test with Human MDM and in the test with HGF was “upregulate” in each case.
